Measured values taken from article PMC4057759, “Biological Evaluation and 3D-QSAR Studies of Curcumin Analogues as Aldehyde Dehydrogenase 1 Inhibitors” (International Journal of Molecular Sciences, 2014).
pIC50: −log10 of the molar value. Where two headings read alike, the source gives them in different places.

Assays:
baker's yeast ALDH1 = target: T1, baker's yeast ALDH1 (Saccharomyces cerevisiae, UniProt P46367); assay: In vitro ALDH1 inhibitory assay (propanal oxidation, NAD, OD 340 nm); type: biochemical; settings: for inhibitory activity on ALDH1 (in words): in vitro
T1 construct: purchased Sigma (St. Louis, MO, USA)
T1 sequence (P46367 25-519): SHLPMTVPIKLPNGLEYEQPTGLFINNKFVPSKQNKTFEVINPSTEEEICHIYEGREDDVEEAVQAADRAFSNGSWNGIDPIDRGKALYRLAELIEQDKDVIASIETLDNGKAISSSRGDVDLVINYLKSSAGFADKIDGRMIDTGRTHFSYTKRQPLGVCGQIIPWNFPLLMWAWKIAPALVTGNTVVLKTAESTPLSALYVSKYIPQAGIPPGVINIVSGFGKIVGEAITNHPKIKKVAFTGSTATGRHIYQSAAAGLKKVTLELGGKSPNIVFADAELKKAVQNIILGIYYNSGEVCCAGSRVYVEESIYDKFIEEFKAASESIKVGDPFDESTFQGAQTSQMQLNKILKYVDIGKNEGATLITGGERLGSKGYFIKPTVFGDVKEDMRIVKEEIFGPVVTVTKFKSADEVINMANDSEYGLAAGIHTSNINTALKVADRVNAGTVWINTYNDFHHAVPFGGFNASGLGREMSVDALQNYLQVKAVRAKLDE
Description: (§1) In vitro ALDH1 inhibitory assay was performed as follows. To a reaction mixture containing 1 mM EDTA, 100 mM KCl, 2 mM NAD, 0.1 M sodium phosphate buffer pH 7.4, 1 U/mg baker’s yeast ALDH1 was added by Multifunction microplatereader (Tecan Infinite 200, TECAN Austria GmbH, Männedorf, Switzerland). The reaction was started by the addition of 1 mM propanal in final volume of 300 μL and the optical density (OD) was read at 340 nm at 0 min (just after the addition of the substrate) and reacted for 5 min. The enzyme activity is expressed as OD/min at 25 °C at the pH 7.4. Results are the average of three experiments done in duplicate. […] The IC50 values in units of μM were transformed in pIC50 (–log IC50). The data was randomly divided into training set (26 samples) and test set (4 samples * carry out external validation).

ALDH1 = target: T2, ALDH1 (Saccharomyces cerevisiae, UniProt P46367); assay: Kinetic analysis of inhibition of ALDH1 (Lineweaver-Burk plots, propanal); type: biochemical, baker's yeast; settings: double-reciprocal plots, oxidation of propanal
T2 construct: purchased Sigma (St. Louis, MO, USA)
T2 sequence (P46367 25-519): T1 sequence (P46367 25-519)
Description: as §1, with “Figure 1. […] In vitro” for “In vitro”

Solubility (remark) = type: physicochemical
[1] = 1 mM propanal, 2 mM NAD, pH 7.4, 25 °C, read-out: IC50
[2] = Table 3, experimental activity, read-out: Actual pIC50 (converted)
[3] = Table 1, –log IC50, read-out: pIC50 (converted)

SMILES | pIC50 (baker's yeast ALDH1; [1]) | IC50 (baker's yeast ALDH1; [2]) [µM] | also measured
O=C1/C(=C/c2ccc(O)cc2)COC/C1=C\c1ccc(O)cc1 [Compound 11] | 4.40 | 38.9 | IC50 (baker's yeast ALDH1; [3]): 38.9 µM
COc1cc(/C=C2\CC/C(=C\c3ccc(O)c(OC)c3)C2=O)ccc1O [Compound 13] | 4.62 | 24 | –
CN(C)c1ccc(/C=C2\CSC/C(=C\c3ccc(N(C)C)cc3)C2=O)cc1 [Compound 23] | 4.16 | 69.2 | –
O=C1/C(=C/c2ccc(O)c(O)c2)COC/C1=C\c1ccc(O)c(O)c1 [Compound 8] | 5.10 | 7.94 | inhibitory activity on ALDH1 (in words) (baker's yeast ALDH1): high inhibitory activity
O=C1/C(=C/c2cc(Br)c(O)c(Br)c2)COC/C1=C\c1cc(Br)c(O)c(Br)c1 [Compound 19] | 4.73 | 18.6 | –
O=C1/C(=C/c2cc(O)cc(O)c2)CC/C1=C\c1cc(O)cc(O)c1 [Compound 12] | 4.36 | 43.7 | –
O=C1/C(=C/c2ccc(O)c(O)c2)CSC/C1=C\c1ccc(O)c(O)c1 [Compound 9] | 4.64 | 22.9 | –
O=C1/C(=C/c2ccc(O)c(O)c2)CNC/C1=C\c1ccc(O)c(O)c1 [Compound 4] | 4.40 | 39.8 | –
O=C1/C(=C/c2ccc(O)c(O)c2)CCC/C1=C\c1ccc(O)c(O)c1 [Compound 7] | – | – | pIC50 (baker's yeast ALDH1; Actual pIC50, Table 3, experimental activity): 5.20; pIC50 (baker's yeast ALDH1; IC50, 1 mM propanal, 2 mM NAD, pH 7.4, 25 °C): 5.19; inhibitory activity on ALDH1 (in words) (baker's yeast ALDH1): high inhibitory activity; pIC50 (baker's yeast ALDH1; pIC50, Table 1, –log IC50): 5.20
O=C1/C(=C/c2ccc(O)c(O)c2)CC/C1=C\c1ccc(O)c(O)c1 [Compound 6] | 5.47 | – | inhibition type (ALDH1): mixed-competitive inhibition type; IC50 (baker's yeast ALDH1; [3]): 3.47 µM; inhibitory activity on ALDH1 (in words) (baker's yeast ALDH1): high inhibitory activity; activity relative to curcumin (baker's yeast ALDH1; ratio of IC50 values): over 10 times
COc1cc(/C=C2\COC/C(=C\c3cc(OC)c(O)c(OC)c3)C2=O)cc(OC)c1O [Compound 15] | 4.78 | 16.6 | –
O=C1/C(=C/c2ccccn2)CCC/C1=C\c1ccccn1 [Compound 30] | 4.74 | 18.2 | –
CN(C)c1ccc(/C=C2\CCC/C(=C\c3ccc(N(C)C)cc3)C2=O)cc1 [Compound 22] | 4.13 | 74.1 | –
COc1cc(/C=C2\CNC/C(=C\c3cc(OC)c(O)c(OC)c3)C2=O)cc(OC)c1O [Compound 3] | 4.52 | 30.2 | –
O=C1/C(=C/c2ccncc2)CSC/C1=C\c1ccncc1 [Compound 26] | 4.97 | 10.7 | –
O=C1/C(=C/c2cc(Br)c(O)c(Br)c2)CCC/C1=C\c1cc(Br)c(O)c(Br)c1 [Compound 18] | 4.76 | 17.4 | –

Further lines, with some results ahead:

pIC50 (baker's yeast ALDH1; [1]) | IC50 (baker's yeast ALDH1; [2]) [µM] | SMILES | also measured
4.50 | 31.6 | COc1cc(/C=C2\CSC/C(=C\c3ccc(O)c(OC)c3)C2=O)ccc1O [Compound 14] | –
4.52 | 29.5 | O=C1/C(=C/c2cccs2)CC/C1=C\c1cccs1 [Compound 25] | IC50 (baker's yeast ALDH1; [3]): 29.5 µM
4.75 | 17.8 | O=C1/C(=C/c2cc(Br)c(O)c(Br)c2)CSC/C1=C\c1cc(Br)c(O)c(Br)c1 [Compound 20] | –
4.27 | 63.1 | O=C1/C(=C/c2ccc(O)cc2)CC/C1=C\c1ccc(O)cc1 [Compound 10] | –
4.43 | – | COc1cc(/C=C/C(=O)CC(=O)/C=C/c2ccc(O)c(OC)c2)ccc1O [Curcumin] | –
5.09 | 8.32 | O=C1/C(=C/c2ccc(Br)cc2)CCC/C1=C\c1ccc(Br)cc1 [Compound 24] | inhibition type (ALDH1): mixed-competitive inhibition type; IC50 (baker's yeast ALDH1; [3]): 8.32 µM; inhibitory activity on ALDH1 (in words) (baker's yeast ALDH1): high inhibitory activity; solubility (Solubility (remark)): not good
– | 13.8 | O=C1/C(=C/c2ccccn2)CC/C1=C\c1ccccn1 [Compound 29] | IC50 (baker's yeast ALDH1; [3]): 13.8 µM
5.54 | – | CCN(CC)C(=S)SSC(=S)N(CC)CC [Disufiram, disulfiram, reference compound] | –
4.63 | 23.4 | O=C(/C=C/c1ccc(O)c(O)c1)/C=C/c1ccc(O)c(O)c1 [Compound 5] | –
4.27 | 53.7 | COc1cc(/C=C2\COC/C(=C\c3cc(F)c(O)c(OC)c3)C2=O)cc(F)c1O [Compound 16] | –
4.59 | 25.7 | O=C(/C=C/c1cc(Br)c(O)c(Br)c1)/C=C/c1cc(Br)c(O)c(Br)c1 [Compound 17] | –
4.20 | 63.1 | COc1cc(/C=C2\CSC/C(=C\c3cc(OC)c(OC)c(OC)c3)C2=O)cc(OC)c1OC [Compound 21] | –
